Measured values: the supplement of paper PMC10627819

Experiments:
S. pneumoniae D39V [1] = assay: fitness (endpoint OD595 vs no drug) (fraction); higher = more growth
In short: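 Plates with 384 wells were inoculated at OD595 0.01 using 30 µl of TSB, LB Lennox or CY, or 55 µl for S. pneumoniae. Incubation was at 37 °C, with OD595 measured every 30 min for 14 h. Fitness is the stationary-phase transition optical density over the robust mean of no-drug control wells, after first-reading background subtraction; it is capped at 1.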

S. aureus DSM 20231 = assay: Bliss interaction score (quartile over a dose matrix) (fitness difference); higher = more antagonism (negative = synergy)
In short: (§1)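 Quartiles of the Bliss score were taken over technical, biological and donor/recipient replicates. That score is observed fitness minus the product of the single-drug fitness values, which were inferred from combination data. Fitness itself is OD595 at entry into stationary phase divided by the plate's robust no-drug mean, with a cap at 1.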

S. aureus Newman = assay: as above
In short: as §1

B. subtilis 168 = assay: as above
In short: as §1

S. pneumoniae D39V [2] = assay: as above
In short: as §1
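Throughout, for Bliss interaction score (quartile over a dose matrix): first quartile when negative (synergy) and third quartile when positive (antagonism).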

CC[C@H]1OC(=O)[C@H](C)[C@@H](O[C@H]2C[C@@](C)(OC)[C@@H](O)[C@H](C)O2)[C@H](C)[C@@H](O[C@@H]2O[C@H](C)C[C@H](N(C)C)[C@H]2O)[C@](C)(OC)C[C@@H](C)C(=O)[C@H](C)[C@@H](O)[C@]1(C)O [Clarithromycin] + C/C(=C\C(=O)OCCCCCCCCC(=O)O)C[C@@H]1OC[C@H](C[C@@H]2O[C@H]2[C@@H](C)[C@H](C)O)[C@@H](O)[C@H]1O [Pseudomonic acid]
fitness, S. pneumoniae D39V [1], one replicate
Conditions	first compound 0.007812 µg/mL	first compound 0.01562 µg/mL	first compound 0.03125 µg/mL
partner 0.03 µg/mL	0.925	0.852	0.667
partner 0.06 µg/mL	0.841	0.838	0.673
partner 0.12 µg/mL	0.68	0.615	0.412

fitness, S. pneumoniae D39V [1]
Conditions	first compound 0.0625 µg/mL	first compound 0.07 µg/mL	first compound 0.125 µg/mL	first compound 0.14 µg/mL	first compound 0.25 µg/mL	first compound 0.28 µg/mL
partner 0.03 µg/mL	0.683	0.159	0.427	0.0976	0.258	0.0736
partner 0.06 µg/mL	–	0.12	0.399	0.102	0.174	0.0966
partner 0.12 µg/mL	0.431	0.101	0.24	0.0908	0.117	0.0699

Conditions	Bliss interaction score
B. subtilis 168	0.0528
S. aureus DSM 20231	0.0125
S. aureus Newman	0.0379
S. pneumoniae D39V [2]	0.0643

CC[C@H]1OC(=O)[C@H](C)[C@@H](O[C@H]2C[C@@](C)(OC)[C@@H](O)[C@H](C)O2)[C@H](C)[C@@H](O[C@@H]2O[C@H](C)C[C@H](N(C)C)[C@H]2O)[C@](C)(OC)C[C@@H](C)C(=O)[C@H](C)[C@@H](O)[C@]1(C)O [Clarithromycin] + CC1=C\[C@@H](O)CC(=O)Cc2nc(co2)C(=O)N2CCC=C2C(=O)O[C@H](C(C)C)[C@H](C)/C=C/C(=O)NC\C=C\1 [Virginiamycin M1]
fitness, S. pneumoniae D39V [1], one replicate
Conditions	first compound 0.007812 µg/mL	first compound 0.01562 µg/mL	first compound 0.03125 µg/mL	first compound 0.0625 µg/mL	first compound 0.125 µg/mL	first compound 0.25 µg/mL
partner 0.15 µg/mL	–	–	–	0.788	0.645	0.463
partner 0.3 µg/mL	–	–	–	0.734	0.635	0.425
partner 0.5 µg/mL	0.856	0.884	0.758	0.756	0.529	0.361
partner 1 µg/mL	0.852	0.85	0.719	0.608	0.328	0.132
partner 2 µg/mL	0.853	0.808	0.682	–	–	–

fitness, S. pneumoniae D39V [1]
Conditions	first compound 0.0625 µg/mL	first compound 0.07 µg/mL	first compound 0.125 µg/mL	first compound 0.14 µg/mL	first compound 0.25 µg/mL	first compound 0.28 µg/mL
partner 0.5 µg/mL	–	0.119	–	0.0772	–	0.0473
partner 1 µg/mL	–	0.118	–	0.0875	–	0.0656
partner 2 µg/mL	0.647	0.124	0.463	0.105	0.288	0.0464

Conditions	Bliss interaction score
B. subtilis 168	0.0359
S. aureus DSM 20231	0.0856
S. aureus Newman	0.0322
S. pneumoniae D39V [2]	0.0597

CCC[C@@H]1C[C@@H](C(=O)N[C@@H]([C@H]2O[C@H](SC)[C@H](O)[C@@H](O)[C@H]2O)[C@@H](C)O)N(C)C1 [Lincomycin] + CO[C@@]12[C@H](COC(N)=O)C3=C(C(=O)C(C)=C(N)C3=O)N1C[C@@H]1N[C@@H]12 [MitomycinC]
Conditions	Bliss interaction score
B. subtilis 168	0.0735
S. aureus DSM 20231	-0.0874
S. aureus Newman	-0.0572
S. pneumoniae D39V [2]	-0.0879

CCC[C@@H]1C[C@@H](C(=O)N[C@@H]([C@H]2O[C@H](SC)[C@H](O)[C@@H](O)[C@H]2O)[C@@H](C)O)N(C)C1 [Lincomycin] + Oc1cc(Cl)ccc1Oc1ccc(Cl)cc1Cl [Triclosan]
Conditions	Bliss interaction score
B. subtilis 168	-0.0218
S. aureus DSM 20231	-0.224
S. aureus Newman	0.0423
S. pneumoniae D39V [2]	-0.119
